Laboratory results taken from patent publication US5049654A, “Calcitonin gene related peptide derivatives” (Toyo Jozo Kabushiki Kaisha, priority 1986, dated 1991).
Positions of bridges follow the written chain, without caps; N, C: chain ends. Non-standard residues stand in square brackets, D forms with d. Residues, ends and D or L forms follow the SMILES beside them. Asu = N[C@@H](CCCCCC(=O)O)C(=O)O; Mpa = O=C(O)CCS

Assays:
Physical properties: pI = assay type: physicochemical
Wistar rats [1] = assay: Serum phosphate reducing activity, i.v. into the tail vein of Wistar rats, method of Goldenberg et al.; assay type: in vivo; conditions: rat; for reduction of serum phosphate concentration as compared with control group: vs dissolving medium group
Method: (§1) Desalanyl-deamino-c-CGRP, desalanyl-[Asu^2,7 -c-CGRP and desalanyl-[Asp^3, Asu^2,7 ]-c-CGRP (each 80 μg), and c-CGRP (Japan. Patent Unexam. Publ. No. 61-273581) and known h-CGRP (each 80 μg for control group) dissolved in citrate buffer, pH 6.5, containing 0.1% bovine serum albumin (hereinafter designated dissolving medium) (1 ml) were administered intravenously into the tail vein of Wistar rats, body weight 80-90 g, 5-6 rats in one group, at 20 or 80 μg/kg. After 30 and 60 mins. of administration, blood samples were collected from the abdominal descending aorta. The serum calcium concentration was measured by atomic adsorption spectrophotometry. Serum phosphate was measured by a method according to Goldenberg et al. [Clin. Chem., 12: 872-882 (1966)].

Wistar rats [2] = assay: Serum calcium reducing activity, i.v. into the tail vein of Wistar rats, atomic adsorption spectrophotometry; assay type: in vivo; conditions: rat; for reduction of serum calcium concentration as compared with control group: vs dissolving medium group
Method: as §1

[3] = test peptide 80 μg/kg vs c-CGRP at equivalent dose
[4] = test peptide 80 μg/kg vs h-CGRP 80 μg/kg
[5] = test peptide 20 μg/kg vs c-CGRP 20 μg/kg
[6] = test peptide 20 μg/kg vs h-CGRP 80 μg/kg

pI (Physical properties: pI) | Compound | duration of serum phosphate reducing activity (Wistar rats [1]; 80 μg/kg i.v.) | reduction of serum phosphate concentration as compared with control group (Wistar rats [1]; 80 μg/kg i.v., FIGS. 2 and 4) | serum phosphate reducing activity compared with c-CGRP (Wistar rats [1]; [3]) | serum phosphate reducing activity compared with h-CGRP (Wistar rats [1]; [4]) | duration of serum calcium reducing activity (Wistar rats [2]; 80 μg/kg i.v.) | reduction of serum calcium concentration as compared with control group (Wistar rats [2]; 80 μg/kg i.v., FIGS. 1 and 3) | serum calcium reducing activity compared with c-CGRP (Wistar rats [2]; [3]) | serum calcium reducing activity compared with h-CGRP (Wistar rats [2]; [4]) | duration of serum phosphate reducing activity (Wistar rats [1]; 20 μg/kg i.v.) | reduction of serum phosphate concentration as compared with control group (Wistar rats [1]; 20 μg/kg i.v., FIG. 2) | serum phosphate reducing activity compared with c-CGRP (Wistar rats [1]; [5]) | serum phosphate reducing activity compared with h-CGRP (Wistar rats [1]; [6]) | duration of serum calcium reducing activity (Wistar rats [2]; 20 μg/kg i.v.) | reduction of serum calcium concentration as compared with control group (Wistar rats [2]; 20 μg/kg i.v., FIG. 1) | serum calcium reducing activity compared with c-CGRP (Wistar rats [2]; [5]) | serum calcium reducing activity compared with h-CGRP (Wistar rats [2]; [6])
more than 10.25 | CC(C)C[C@H](NC(=O)[C@H](CCCNC(=N)N)NC(=O)[C@H](Cc1c[nH]cn1)NC(=O)[C@@H](NC(=O)[C@@H](NC(=O)[C@@H]1CCCCCC(=O)N[C@@H](CC(=O)O)C(=O)N[C@@H]([C@@H](C)O)C(=O)N[C@@H](C)C(=O)N[C@@H]([C@@H](C)O)C(=O)N1)C(C)C)[C@@H](C)O)C(=O)N[C@@H](C)C(=O)N[C@@H](CC(=O)O)C(=O)N[C@@H](Cc1ccccc1)C(=O)N[C@@H](CC(C)C)C(=O)N[C@@H](CO)C(=O)N[C@@H](CCCNC(=N)N)C(=O)N[C@@H](CO)C(=O)NCC(=O)NCC(=O)N[C@H](C(=O)NCC(=O)N[C@@H](CCCCN)C(=O)N[C@@H](CC(N)=O)C(=O)N[C@@H](CC(N)=O)C(=O)N[C@@H](Cc1ccccc1)C(=O)N[C@H](C(=O)N1CCC[C@H]1C(=O)N[C@H](C(=O)N[C@@H](CC(N)=O)C(=O)N[C@H](C(=O)NCC(=O)N[C@@H](CO)C(=O)N[C@@H](CCCCN)C(=O)N[C@@H](C)C(=O)N[C@@H](Cc1ccccc1)C(N)=O)C(C)C)[C@@H](C)O)C(C)C)C(C)C [desalanyl-[Asp^3,Asu^2,7]-c-CGRP] (DTAT[Asu]VTHRLADFLSRSGGVGKNNFVPTNVGSKAF-NH2; lactam N-5) | more than 2 hours | more than 30% | significantly strong as compared with c-CGRP | stronger than that of h-CGRP | more than 2 hours | more than 30% | significantly strong as compared with c-CGRP | stronger than that of h-CGRP |  |  |  |  |  |  |  | 
more than 10.25 | CC(C)C[C@H](NC(=O)[C@H](CCCNC(=N)N)NC(=O)[C@H](Cc1c[nH]cn1)NC(=O)[C@@H](NC(=O)[C@@H](NC(=O)[C@@H]1CCCCCC(=O)N[C@@H](CC(N)=O)C(=O)N[C@@H]([C@@H](C)O)C(=O)N[C@@H](C)C(=O)N[C@@H]([C@@H](C)O)C(=O)N1)C(C)C)[C@@H](C)O)C(=O)N[C@@H](C)C(=O)N[C@@H](CC(=O)O)C(=O)N[C@@H](Cc1ccccc1)C(=O)N[C@@H](CC(C)C)C(=O)N[C@@H](CO)C(=O)N[C@@H](CCCNC(=N)N)C(=O)N[C@@H](CO)C(=O)NCC(=O)NCC(=O)N[C@H](C(=O)NCC(=O)N[C@@H](CCCCN)C(=O)N[C@@H](CC(N)=O)C(=O)N[C@@H](CC(N)=O)C(=O)N[C@@H](Cc1ccccc1)C(=O)N[C@H](C(=O)N1CCC[C@H]1C(=O)N[C@H](C(=O)N[C@@H](CC(N)=O)C(=O)N[C@H](C(=O)NCC(=O)N[C@@H](CO)C(=O)N[C@@H](CCCCN)C(=O)N[C@@H](C)C(=O)N[C@@H](Cc1ccccc1)C(N)=O)C(C)C)[C@@H](C)O)C(C)C)C(C)C [desalanyl-[Asu^2,7]-c-CGRP] (NTAT[Asu]VTHRLADFLSRSGGVGKNNFVPTNVGSKAF-NH2; lactam N-5) | more than 2 hours | more than 30% | significantly strong as compared with c-CGRP | stronger than that of h-CGRP | more than 2 hours | more than 30% | significantly strong as compared with c-CGRP | stronger than that of h-CGRP |  |  |  |  |  |  |  | 
more than 10.25 | CC(C)C[C@H](NC(=O)[C@H](CCCNC(=N)N)NC(=O)[C@H](Cc1c[nH]cn1)NC(=O)[C@@H](NC(=O)[C@@H](NC(=O)[C@@H]1CSSCCC(=O)N[C@@H](CC(N)=O)C(=O)N[C@@H]([C@@H](C)O)C(=O)N[C@@H](C)C(=O)N[C@@H]([C@@H](C)O)C(=O)N1)C(C)C)[C@@H](C)O)C(=O)N[C@@H](C)C(=O)N[C@@H](CC(=O)O)C(=O)N[C@@H](Cc1ccccc1)C(=O)N[C@@H](CC(C)C)C(=O)N[C@@H](CO)C(=O)N[C@@H](CCCNC(=N)N)C(=O)N[C@@H](CO)C(=O)NCC(=O)NCC(=O)N[C@H](C(=O)NCC(=O)N[C@@H](CCCCN)C(=O)N[C@@H](CC(N)=O)C(=O)N[C@@H](CC(N)=O)C(=O)N[C@@H](Cc1ccccc1)C(=O)N[C@H](C(=O)N1CCC[C@H]1C(=O)N[C@H](C(=O)N[C@@H](CC(N)=O)C(=O)N[C@H](C(=O)NCC(=O)N[C@@H](CO)C(=O)N[C@@H](CCCCN)C(=O)N[C@@H](C)C(=O)N[C@@H](Cc1ccccc1)C(N)=O)C(C)C)[C@@H](C)O)C(C)C)C(C)C [desalanyl-deamino-c-CGRP] ([Mpa]NTATCVTHRLADFLSRSGGVGKNNFVPTNVGSKAF-NH2; disulfide 1-6) | ≥ 2 h | more than 30% | stronger | stronger than those of h-CGRP | ≥ 2 h | more than 30% | stronger | stronger than those of h-CGRP | ≥ 2 h | more than 30% | significantly strong as compared with c-CGRP | stronger than those of h-CGRP administered in quadruple the amounts | ≥ 2 h | more than 30% | significantly strong as compared with c-CGRP | stronger than those of h-CGRP administered in quadruple the amounts
